Consider 24 compounds from patent publication US20230382925A1, “MODULATORS OF CYSTIC FIBROSIS TRANSMEMBRANE CONDUCTANCE REGULATOR” (VERTEX PHARMACEUTICALS INCORPORATED, priority 2020, published 2023).

For series [1] the following is noted: amide bond, 13-membered ring, DMF.
The target in a further series is T1, CFTR (Homo sapiens, UniProt P13569, DEL508-508).
T1 construct: human bronchial epithelial (HBE) cells derived from CF subjects heterozygous for F508del; endogenous in cells; host or cells: primary human bronchial epithelial cells from CF subjects (F508del/MF-HBE)
Description: HBE assay: Ussing chamber assay of CFTR-mediated short-circuit currents (F508del/MF-HBE, with 1 μM Ivacaftor). The following applies: F508del/MF-HBE cells, 18-24 hours, 20% human serum; for pEC50: range of concentrations with 1 μM Ivacaftor; for HBE Max Activity: with 1 μM Ivacaftor, compared to known Vertex corrector with 18 μM Tezacaftor and 1 μM Ivacaftor; for HBE Activity at 10 μM: single fixed concentration of 10 μM with 1 μM Ivacaftor. Format: cell-based. As for the experimental part:
1. Ussing Chamber Assay of CFTR-mediated short-circuit currents
Ussing chamber experiments were performed using human bronchial epithelial (HBE) cells derived from CF subjects heterozygous for F508del and a minimal function CFTR mutation (F508del/MF-HBE) and cultured as previously described (Neuberger T, Burton B, Clark H, Van Goor F Methods Mol Biol 2011:741:39-54). After four days the apical media was removed, and the cells were grown at an air liquid interface for >14 days prior to use.
To isolate the CFTR-mediated short-circuit (ISC) current, F508del/MF-HBE grown on Costar® Snapwell™ cell culture inserts were mounted in an Ussing chamber and the transepithelial ISC was measured under voltage-clamp recording conditions (Vhold=0 mV) at 37° C. The basolateral solution contained (in mM) 145 NaCl, 0.83 K2HPO4, 3.3 KH2PO4, 1.2 MgCl2, 1.2 CaCl2), 10 Glucose, 10 HEPES (pH adjusted to 7.4 with NaOH) and the apical solution contained (in mM) 145 NaGluconate, 1.2 MgCl2, 1.2 CaCl2), 10 glucose, 10 HEPES (pH adjusted to 7.4 with NaOH) and 30 μM amiloride to block the epithelial sodium channel. Forskolin (20 μM) was added to the apical surface to activate CFTR, followed by apical addition of a CFTR inhibitor cocktail consisting of BPO, GlyH-101, and CFTR inhibitor 172 (each at 20 μM final assay concentration) to specifically isolate CFTR currents. The CFTR-mediated ISC (μA/cm^2) for each condition was determined from the peak forskolin response to the steady-state current following inhibition.
2. Identification of Corrector Compounds
The activity of the CFTR corrector compounds on the CFTR-mediated ISC was determined in Ussing chamber studies as described above. The F508del/MF-HBE cell cultures were either incubated with the corrector compounds at a range of concentrations in combination with 1 μM Ivacaftor or were incubated with the corrector compounds at a single fixed concentration of 10 μM in combination with 1 μM Ivacaftor for 18-24 hours at 37° C. and in the presence of 20% human serum. The concentration of corrector compounds with 1 μM Ivacaftor during the 18-24 hours incubations was kept constant throughout the Ussing chamber measurement of the CFTR-mediated ISC to ensure compounds were present throughout the entire experiment.

SMILES strings stand for the structures. pEC50: −log10 of the molar value. Values joined by “and” are separate entries in the source; they are usually repeats but may differ in a detail not shown here. Equal entries are not always repeated. Where two headings read alike, the source gives them in different places.

T1 sequence (P13569 with tags, fused parts or gaps DEL508-508): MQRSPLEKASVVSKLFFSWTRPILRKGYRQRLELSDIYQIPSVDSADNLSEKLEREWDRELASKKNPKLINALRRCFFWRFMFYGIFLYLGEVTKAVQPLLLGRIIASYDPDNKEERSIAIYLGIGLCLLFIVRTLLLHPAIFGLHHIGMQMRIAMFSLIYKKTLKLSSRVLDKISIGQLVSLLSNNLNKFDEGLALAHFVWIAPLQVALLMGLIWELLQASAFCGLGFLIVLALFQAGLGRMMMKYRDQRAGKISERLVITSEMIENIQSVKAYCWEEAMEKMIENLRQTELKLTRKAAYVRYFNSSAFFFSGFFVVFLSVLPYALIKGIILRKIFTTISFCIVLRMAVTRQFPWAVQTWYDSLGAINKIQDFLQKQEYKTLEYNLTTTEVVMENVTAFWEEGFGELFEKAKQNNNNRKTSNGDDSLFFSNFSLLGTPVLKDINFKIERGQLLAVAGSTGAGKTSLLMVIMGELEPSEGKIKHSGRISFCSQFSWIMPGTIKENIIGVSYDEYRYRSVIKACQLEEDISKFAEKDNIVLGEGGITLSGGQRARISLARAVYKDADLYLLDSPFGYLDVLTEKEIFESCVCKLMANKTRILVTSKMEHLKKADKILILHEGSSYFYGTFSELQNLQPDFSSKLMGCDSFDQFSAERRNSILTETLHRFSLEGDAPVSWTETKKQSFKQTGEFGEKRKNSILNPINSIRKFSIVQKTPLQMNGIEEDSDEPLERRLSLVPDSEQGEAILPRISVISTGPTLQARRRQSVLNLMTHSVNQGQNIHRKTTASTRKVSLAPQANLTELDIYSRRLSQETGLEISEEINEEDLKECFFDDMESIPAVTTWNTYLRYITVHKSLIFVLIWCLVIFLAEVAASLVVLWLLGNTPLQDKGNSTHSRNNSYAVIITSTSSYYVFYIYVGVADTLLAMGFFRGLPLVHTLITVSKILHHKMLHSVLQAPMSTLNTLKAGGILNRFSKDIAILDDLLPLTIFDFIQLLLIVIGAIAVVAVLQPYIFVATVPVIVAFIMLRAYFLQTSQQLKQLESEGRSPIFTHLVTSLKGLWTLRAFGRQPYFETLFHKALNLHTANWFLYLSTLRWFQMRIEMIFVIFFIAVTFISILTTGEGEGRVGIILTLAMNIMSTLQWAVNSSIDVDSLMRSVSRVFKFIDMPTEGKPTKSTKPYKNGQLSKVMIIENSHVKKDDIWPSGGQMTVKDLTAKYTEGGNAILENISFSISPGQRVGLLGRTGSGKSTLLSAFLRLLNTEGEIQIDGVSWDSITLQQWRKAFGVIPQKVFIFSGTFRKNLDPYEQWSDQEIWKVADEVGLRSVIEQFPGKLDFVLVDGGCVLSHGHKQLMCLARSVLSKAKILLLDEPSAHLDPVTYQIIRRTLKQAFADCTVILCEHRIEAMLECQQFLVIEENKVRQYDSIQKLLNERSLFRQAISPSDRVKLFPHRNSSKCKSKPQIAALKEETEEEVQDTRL

In the case of `Cc1cccc(C)c1-c1cc2nc(n1)NS(=O)(=O)c1cccc(c1)C(=O)N(C1CC(CNC(=O)OC(C)(C)C)C1)[C@H](CC(C)C)CO2` (some centres unmarked), the ring closure, yield after HPLC in series [1] (from Cc1cccc(C)c1-c1cc(OC[C@@H](CC(C)C)NC2CC(CNC(=O)OC(C)(C)C)C2)nc(NS(=O)(=O)c2cccc(C(=O)O)c2)n1, HATU/DIEA, 7.0 h, 2 steps) was 15% and 19%.
As for `Cc1cccc(C)c1-c1cc2nc(n1)NS(=O)(=O)c1cccc(c1)C(=O)N(C1CN(C(=O)OC(C)(C)C)C(C)(C)C1)[C@H](CC(C)C)CO2` (some centres unmarked), in series [1] (from Cc1cccc(C)c1-c1cc(OC[C@@H](CC(C)C)NC2CN(C(=O)OC(C)(C)C)C(C)(C)C2)nc(NS(=O)(=O)c2cccc(C(=O)O)c2)n1, COMU/DIEA, 2 steps), the ring closure, yield after HPLC is 8% and 4%.
`Cc1cccc(C)c1-c1cc2nc(n1)NS(=O)(=O)c1cccc(c1)C(=O)N(C1CCC1C1CC1)[C@H](CC(C)(C)C)CO2` (some centres unmarked): the ring closure, yield after HPLC in series [1] (from Cc1cccc(C)c1-c1cc(OC[C@@H](CC(C)(C)C)NC2CCC2C2CC2)nc(NS(=O)(=O)c2cccc(C(=O)O)c2)n1, CDMT/NMM, 25.0 °C, 2 steps) was determined as 2%.
In series [1] (from COC(=O)C1CC2(CC(N[C@@H](COc3cc(-c4c(C)cccc4C)nc(NS(=O)(=O)c4cccc(C(=O)O)c4)n3)CC3(C(F)(F)F)CC3)C2)C1, HATU/TEA, 25.0 °C, 16.0 h, 2 steps), `COC(=O)C1CC2(C1)CC(N1C(=O)c3cccc(c3)S(=O)(=O)Nc3nc(cc(-c4c(C)cccc4C)n3)OC[C@H]1CC1(C(F)(F)F)CC1)C2` (some centres unmarked) registered a ring closure, yield after HPLC of 32%.
Take `Cc1cccc(C)c1-c1cc2nc(n1)NS(=O)(=O)c1cccc(c1)C(=O)N([C@H]1C[C@@]3(C[C@H](NCCC(F)(F)F)C3)C1)[C@H](CC1(C(F)(F)F)CC1)CO2` (some centres unmarked) [Compound 218]: at CFTR, the pEC50 was more than 6.00 and the “HBE Max Activity” value is recorded as “+++ (+++ is >60%)”.
On to `Cc1cccc(C)c1-c1cc2nc(n1)NS(=O)(=O)c1cccc(c1)C(=O)N(C1CC(N3C[C@@H](C)O[C@@H](C)C3)C1)[C@H](CC(C)(C)C)CO2` (stereo in doubt) [Compound 434], for which, on CFTR, the “HBE Activity at 10 μM” value is reported as “+++ (+++ is >60%)”.
On the same count and under the same terms, for `Cc1cccc(C)c1-c1cc2nc(n1)NS(=O)(=O)c1cccc(c1)C(=O)N(C1CC3(CCN(C)CC3)C1)[C@@H]1CN(C3CC4(CCCCC4)C3)C[C@H]1O2` (some centres unmarked) [Compound 473] the value was “+++ (+++ is >60%)”.
As for `Cc1cccc(C)c1-c1cc2nc(n1)NS(=O)(=O)c1cccc(c1)C(=O)N(c1cn[nH]c1)[C@H](CC(C)(C)C)CO2` [Compound 185, (11R)-6-(2,6-Dimethylphenyl)-11-(2,2-dimethylpropyl)-2,2-dioxo-12-(1H-pyrazol-4-yl)-9-oxa-2λ^6-thia-3,5,12,19-tetrazatricyclo[12.3.1.14,8]nonadeca-1(18),4(19),5,7,14,16-hexaen-13-one], on CFTR, the pEC50 was more than 6.00 and the “HBE Max Activity” value is reported as “+++ (+++ is >60%)”.
The like results for `Cc1cccc(C)c1-c1cc2nc(n1)NS(=O)(=O)c1cccc(c1)C(=O)N([C@H]1C[C@](C)(O)C1)[C@H](CC(C)(C)C)CO2` (single isomer, unassigned) [Compound 139] were, in that order, more than 6.00 and “+++ (+++ is >60%)”.
`COC1C[C@@H]2CC(N3C(=O)c4cccc(c4)S(=O)(=O)Nc4nc(cc(-c5c(C)cccc5C)n4)OC[C@H]3CC(C)C)C[C@@H]2C1` (some centres unmarked) displayed a ring closure, yield after HPLC in series [1] (from COC1C[C@H]2CC(N[C@@H](COc3cc(-c4c(C)cccc4C)nc(NS(=O)(=O)c4cccc(C(=O)O)c4)n3)CC(C)C)C[C@H]2C1, COMU/DIEA, 29.7 mM, 14.0 h) of 30%.
Turning to `Cc1cccc(C)c1-c1cc2nc(n1)NS(=O)(=O)c1cccc(c1)C(=O)N(C1CC3(CC3)C1)C(CC(F)(F)F)CO2` (centres unmarked), the ring closure, yield after HPLC in series [1] (from Cc1cccc(C)c1-c1cc(OCC(CC(F)(F)F)NC2CC3(CC3)C2)nc(NS(=O)(=O)c2cccc(C(=O)O)c2)n1, HATU/TEA, 18.3 mM, 18.0 h) worked out at 15%.
For the compound `Cc1cccc(C)c1-c1cc2nc(n1)NS(=O)(=O)c1cccc(c1)C(=O)N(c1cn[nH]c1)[C@H](CC(C)C)CO2` [Compound 99, (11R)-6-(2,6-Dimethylphenyl)-11-isobutyl-2,2-dioxo-12-(1H-pyrazol-4-yl)-9-oxa-2λ^6-thia-3,5,12,19-tetrazatricyclo[12.3.1.14,8]nonadeca-1(18),4(19),5,7,14,16-hexaen-13-one], on CFTR, the pEC50 was 4.52 to 5.52 and the “HBE Max Activity” value is listed as “+++ (+++ is >60%)”.
The like results for `Cc1cccc(C)c1-c1cc2nc(n1)NS(=O)(=O)c1cccc(c1)C(=O)N(C1CC3(CC(N4C[C@@H](C)O[C@@H](C)C4)C3)C1)[C@H](CC(C)(C)C)CO2` (single isomer, unassigned) [Compound 86] were, in that order, more than 6.00 and “+++ (+++ is >60%)”.
In series [1] (from Cc1cccc(C)c1-c1cc(OC[C@@H](CC(C)(C)C)NC2CC3(C2)CC(C(C)(C)O)C3)nc(NS(=O)(=O)c2cccc(C(=O)O)n2)n1, HATU/DIEA, 26.7 mM, 25.0 °C, 17.0 h), `Cc1cccc(C)c1-c1cc2nc(n1)NS(=O)(=O)c1cccc(n1)C(=O)N(C1CC3(C1)CC(C(C)(C)O)C3)[C@H](CC(C)(C)C)CO2` (some centres unmarked) had a ring closure, yield after HPLC of 28%.
With `Cc1cccc(C)c1-c1cc2nc(n1)NS(=O)(=O)c1cccc(c1)C(=O)N([C@H]1C[C@@](O)(Cc3ccccc3)C1)[C@H](CC(C)(C)C)CO2` (single isomer, unassigned) [Compound 140], at CFTR, the pEC50 was more than 6.00 and the “HBE Max Activity” value is “+++ (+++ is >60%)”.
For `Cc1cccc(C)c1-c1cc2cc(n1)NS(=O)(=O)c1cccc(c1)C(=O)N(C1CC3(CCN(C(=O)OC(C)(C)C)CC3)C1)[C@H](CC(C)C)CO2`, in series [1] (from Cc1cccc(C)c1-c1cc(OC[C@@H](CC(C)C)NC2CC3(CCN(C(=O)OC(C)(C)C)CC3)C2)cc(NS(=O)(=O)c2cccc(C(=O)O)c2)n1, HATU/DIEA, 34.7 mM, 14.0 h), the ring closure, yield after HPLC came out at 16%.
As to `Cc1cccc(CO)c1-c1cc2nc(n1)NS(=O)(=O)c1cccc(c1)C(=O)N(C1CC3(CC(NC(=O)OC(C)C)C3)C1)[C@H](CC(C)(C)C)CO2` (some centres unmarked) [Compound 209], the “HBE Activity at 10 μM” value on CFTR is listed as “++ (++ is 30-60%)”.
Still for that read-out and setting: the value for `Cc1cccc(C)c1-c1cc2nc(n1)NS(=O)(=O)c1cccc(c1)C(=O)N([C@H]1CC3(C[C@H](N(C)CCC(F)(F)F)C3)C1)[C@H](CC1(C(F)(F)F)CC1)CO2` (stereo in doubt) [Compound 219] was “+++ (+++ is >60%)”.
With `Cc1cccc(C)c1-c1cc2nc(n1)NS(=O)(=O)c1cccc(c1)C(=O)N(C1CC(NC(=O)OC(C)(C)C)C1)[C@H](CC(C)C)CO2` (some centres unmarked), in series [1] (from Cc1cccc(C)c1-c1cc(OC[C@@H](CC(C)C)NC2CC(NC(=O)OC(C)(C)C)C2)nc(NS(=O)(=O)c2cccc(C(=O)O)c2)n1, HATU/DIPEA, 22.4 mM, 6.0 h, 2 steps), the ring closure, yield after HPLC is 7% and 6%.
For the compound `Cc1cccc(C)c1-c1cc2nc(n1)NS(=O)(=O)c1cccc(c1)C(=O)N(c1cnn(CC(=O)OC(C)(C)C)c1)[C@H](CC(C)C)CO2` [Compound 429], on CFTR, the pEC50 is more than 6.00 and the “HBE Max Activity” value is on record as “+++ (+++ is >60%)”.
Take `Cc1cccc(C)c1-c1cc2nc(n1)NS(=O)(=O)c1cccc(c1)C(=O)N([C@H]1C[C@@]3(C[C@H](N(C)CC(F)(F)F)C3)C1)[C@H](CC1(C(F)(F)F)CC1)CO2` (some centres unmarked) [Compound 221]: at CFTR, the pEC50 is more than 6.00 and the “HBE Max Activity” value was “+++ (+++ is >60%)”.
The like results for `Cc1cccc(C)c1-c1cc2nc(n1)NS(=O)(=O)c1cccc(c1)C(=O)N(C1CC3(C1)CC(O)(Cc1ccccc1)C3)[C@H](CC(C)(C)C)CO2` (stereo in doubt) [Compound 431] were, in that order, more than 6.00 and “+++ (+++ is >60%)”.
The like results for `Cc1cccc(C)c1-c1cc2nc(n1)NS(=O)(=O)c1cccc(c1)C(=O)N(C1CC3(CC(N4C[C@@H](C)O[C@@H](C)C4)C3)C1)[C@H](CC(C)(C)C)CO2` (single isomer, unassigned) [Compound 87] were, in that order, more than 6.00 and “+++ (+++ is >60%)”.
For `Cc1cccc(C)c1-c1cc2nc(n1)NS(=O)(=O)c1cccc(c1)C(=O)N(c1cnn(CC(=O)OC(C)(C)C)c1)[C@H](CC(C)(C)C)CO2` [Compound 427] the same measures were more than 6.00 and “+++ (+++ is >60%)”.
